The record followed here is patent publication US20240181001A1, “TREATMENT” (Queen Mary University London, priority 2021, published 2024).

Molecules are shown by their SMILES. Entries after “also recorded” stand apart in the source; their conditions may differ.

One data set relates to KP tumors. It counts as in vivo, mouse.
The subject of a further data set is KP lung tumor cells. Nature of the data set: Cell survival assay (MTS), KP cells. It counts as cell-based, mouse. The settings on record: increasing concentrations of cisplatin alone or with 2nM 29P. The procedure:
The lung adenocarcinoma cell line KP53 F1 was derived from lung tumors of C57BL/6 KP mice and was kindly provided by Dr. S A. Quezada, UCL Cancer Centre (University College London, UK).
(§1) A549 or KP cell survival was analyzed using the CellTiter96® Aqueous One Solution Reagent (Promega #G3582) according to the manufacturer's instructions. Briefly, 1000 cells were seeded into 96-well plated. Cells were treated the following day and the solution reagent was added after 72 hours of treatment. Plates were read using a wavelength of 490 nm.

Data set [1] deals with human lung adenocarcinoma (A549) cells. As to the kind of experiment: Cell survival assay (MTS), A549 cells. It is filed as cell-based. The settings on record: increasing concentrations of cisplatin alone or with 2nM 29P. The procedure:
A549 and LLC cells were purchased from ATCC. Mouse Lung Endothelial cells (EC) were obtained and cultured as previously described (34).
as §1

The nature of data set [2]: Side effects in C57/BL6 mice: body weight, lymphocytes, creatinine. It is filed as in vivo, mouse. The settings on record: Cis^3/anti-PD-1/anti-CTLA-4 and 29P, compared with Cis^6/anti-PD-1/anti-CTLA-4, placebo or single agent 29P. The procedure: FIG. 3 illustrates that 29P treatment sensitizes KP tumors to current immunotherapies and chemotherapies. […] (A, B, E) Representative images of hematoxylin-eosin stained lungs and quantification of number of tumor foci and tumor burden. […] (D) C57/BL6 mice were treated with Placebo, 29P, Cis^6/α-PD-1+α-CTLA-4 and Cis^3/α-PD-1+α-CTLA-4/29P. […] (F) Representative images of hematoxylin-eosin stained lungs (left) and quantification of mouse body weights and tumor burden (right). N.S. Not significant/p>0.05, *p<0.05, **p<0.01, ***p<0.001. (A,B,D-F) ordinary One-way ANOVA with Tukey's multiple comparison test, for not normally distributed data Kruskal-Wallis test with Dunn's multiple comparison test, (C) Mantel-Cox test, n=5-8 per treatment. Scale bars: 5 mm in H&E staining.

For another data set, the system named is KP tumor burdened lung. As to the kind of experiment: Flow cytometry of lungs bearing KP tumors. The following applies: cisplatin treatment. It is filed as in vivo, mouse. The procedure:
Tumors were minced and incubated at 37° C. for 20 min in an enzymatic cocktail containing DNase (0.5 mg/ml, Sigma). Liberase (2 mg/ml, Sigma) in HBSS (Sigma) was used to make a single cell suspension for pancreatic tumors. For breast tumors, collagenase/dispase (1 mg/ml, Sigma) in PBS, was used to make a single cell suspension. Cells were passed through a […] filter (BD Biosciences), washed in PBS supplemented with 2% foetal bovine serum and 2 mM EDTA, counted and used immediately for flow cytometry. Before cells were stained with specific antibodies, nonspecific binding sites were blocked with Fcγ R III/II TruStain fcX (93, Biolegend). Staining was performed in PBS supplemented with 2% foetal bovine serum and 2 mM EDTA. The following fluorochrome-conjugated antibodies were used: anti-CD45 (30-F11), anti-CD3 (145-2C11), anti-CD4 (L3T4), anti-CD8 (53-6.7), anti-CD69 (H1.2F3), anti-CD44 (IM7), anti-CD62L (MEL-14), anti-CD19 (6D5), anti-CD11b (M1/70), anti-F4/80 (BM8) from Biolegend; anti-PD1 (RMP1-30), anti-Gr1 (RB6-8C5) and anti-Ly6C (HK1.4) from eBioscience. Fixable viability dye (FVD) (eBioscience) was used to discriminate between live and dead cells. Acquisition and analyses were performed on a BD LSRII system using BD […] software (BD Biosciences). The percentage of cells were analysed using FlowJo software (version 10.0.8 tree Star). Dead cells were excluded from the analysis on the basis of FVD and SSC gating. Cell doublets were excluded from the analysis by gating for FSC area versus FSC width. CD45+ cells were used to include leukocytes only in the data analysis.
For orientation: A flow cytometer gives signals particle by particle.

With `CCCCCCOC(=O)N=C(NCCC[C@@H]1NC(=O)[C@@H](C(C)C)N(C)C(=O)[C@H](C)N(C)C(=O)[C@H](C)NC(=O)[C@H](CC(=O)OC)NC(=O)CNC1=O)NC(=O)OCCCCCC` [29P, c(*vR(Hoc)2GD(OMe)A*A)], in the data set with KP tumors (mouse, in vivo), the “weight loss side effect” value is listed as “without apparent adverse weight loss side effects”. Also, in the data set with KP lung tumor cells, the “cisplatin cytotoxicity with 29P addition (MTS cell viability)” value is “independent of 29P addition”. The “cisplatin cytotoxicity with 29P addition (MTS cell viability)” value in data set [1] is recorded as “independent of 29P addition”. In addition, in data set [2], the body weight result is listed as “restored; also recorded: significantly improved parameters”, the creatinine levels result is “restored; also recorded: significantly improved parameters” and the lymphocyte numbers entry is “restored; also recorded: significantly improved parameters”.

Take `N.N.[Cl][Pt][Cl]` [cisplatin]: the anti-tumor effect result in the data set on KP tumors (KP mice, Cis^6 (cisplatin 6 mg/kg) alone) is listed as “clear anti-tumor effect”. Moreover, in the data set on KP tumor burdened lung, the “T cell (CD4+ and CD8+) numbers” value is “increased”; the “myeloid cell (Gr1+, Natural killer cells, dendritic cells, monocytes) numbers” value was “increased”; the tumor associated macrophages entry is reported as “a reduction”.
